{"source": "patent US20230146795A1", "about": "“ENHANCEMENT OF ANTI-TUMOR ACTIVITY OF SHP2 INHIBITOR PYRIMIDINONE IN COMBINATION WITH NOVEL CANCER MEDICINES IN CANCERS” (TAIHO PHARMACEUTICAL CO., LTD., priority 2020, published 2023)", "type_in_all_cases": "cell-based", "key": {"[1]": {"system": "MKN45", "test": "Anti-proliferation assay (CellTiter-Glo 2.0), combination index, MKN45", "procedure": "(§1) Cell lines were obtained from ATCC or Health Science Research Resources Bank.\nEach cell lines were collected by ordinary method, then suspended in indicated medium containing 10% fetal bovine serum in table 3. The number of cells seeded per well was set to 500 cells/20 μL. […] The concentration of each anti-cancer reagents set to 8 concentrations including 0 nM. After adding the medicine to the cells, the cells were further incubated at 37° C. for 3 days under 5% CO2. Cell survival rates were calculated by adding 20 μL of CellTiter-Glo(registered trademark) 2. 0 (Promega) solution to each well, incubating the cells at room temperature for 10 minutes, and then measuring the chemiluminescence intensity of each well using a plate reader (ARVO).\n(§2) A combination index (CI) value at each combined concentration of the medicines was determined."}, "[2]": {"system": "MV-4-11", "test": "Anti-proliferation assay (CellTiter-Glo 2.0), combination index, MV-4-11", "procedure": "as §1\n(§3) 384 well culture plate (781086, Greiner Bio-One International) was used for cell survival rate measurement assay. Each cell lines were collected by ordinary method, then suspended in indicated medium containing 10% fetal bovine serum in table 3. The number of cells seeded per well was set to 500 cells/20 μL. After incubation at 37° C. for 24 hours under 5% CO2, Compound 1 and additional compound having an antitumor effect or a vehicle (DMSO) was added to each well by using D300e Digital Dispenser (Tecan). The concentration of Compound 1 was set to 10 concentrations. The concentration of each anti-cancer reagents set to 8 concentrations including 0 nM. After adding the medicine to the cells, the cells were further incubated at 37° C. for 3 days under 5% CO2. Cell survival rates were calculated by adding 20 μL of CellTiter-Glo(registered trademark) 2. 0 (Promega) solution to each well, incubating the cells at room temperature for 10 minutes, and then measuring the chemiluminescence intensity of each well using a plate reader (ARVO).\nas §2"}, "[3]": {"system": "NCI-H358", "test": "Anti-proliferation assay (CellTiter-Glo 2.0), combination index, NCI-H358", "summary_of_the_method": "(§4)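 Cells were seeded at 500 cells/well in medium with 10% FBS and exposed to agents at 8 concentrations including 0 nM, for 3 days at 37° C under 5% CO2. Survival was read by CellTiter-Glo 2.0 luminescence, and combination index was determined at each combined concentration.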"}, "[4]": {"system": "RT4", "test": "Anti-proliferation assay (CellTiter-Glo 2.0), combination index, RT4", "summary_of_the_method": "as §4"}, "[5]": {"system": "RMG-I", "test": "Anti-proliferation assay (CellTiter-Glo 2.0), combination index, RMG-I", "procedure": "as §1, §3, §2"}, "[6]": {"conditions": "Compound 1 41.2 + combination drug 1110 nmol/L (1:27)"}, "[7]": {"conditions": "Compound 1 370 + combination drug 10000 nmol/L (1:27)"}, "[8]": {"conditions": "Compound 1 4.57 + combination drug 123 nmol/L (1:27)"}, "[9]": {"conditions": "Compound 1 13.7 + combination drug 370 nmol/L (1:27)"}, "[10]": {"conditions": "Compound 1 123 + combination drug 3330 nmol/L (1:27)"}, "[11]": {"conditions": "Compound 1 4.57 + combination drug 41.2 nmol/L (1:9)"}, "[12]": {"conditions": "Compound 1 13.7 + combination drug 123 nmol/L (1:9)"}, "[13]": {"conditions": "Compound 1 41.2 + combination drug 370 nmol/L (1:9)"}, "[14]": {"conditions": "Compound 1 123 + combination drug 1110 nmol/L (1:9)"}, "[15]": {"conditions": "Compound 1 370 + combination drug 3330 nmol/L (1:9)"}, "[16]": {"conditions": "Compound 1 1110 + combination drug 10000 nmol/L (1:9)"}, "[17]": {"conditions": "Compound 1 1.52 + combination drug 123 nmol/L (1:81)"}, "[18]": {"conditions": "Compound 1 4.57 + combination drug 370 nmol/L (1:81)"}, "[19]": {"conditions": "Compound 1 13.7 + combination drug 1110 nmol/L (1:81)"}, "[20]": {"conditions": "Compound 1 41.2 + combination drug 3330 nmol/L (1:81)"}, "[21]": {"conditions": "Compound 1 123 + combination drug 10000 nmol/L (1:81)"}, "[22]": {"conditions": "Compound 1:combination drug molar ratio 1:81"}, "[23]": {"conditions": "Compound 1 41.2 nmol/L + Palbociclib 1110 nmol/L, molar ratio 1:27"}, "[24]": {"conditions": "Compound 1 123 nmol/L + Palbociclib 3330 nmol/L, molar ratio 1:27"}, "[25]": {"conditions": "Compound 1 370 nmol/L + Palbociclib 10000 nmol/L, molar ratio 1:27"}, "[26]": {"conditions": "Compound 1 13.7 nmol/L + Palbociclib 1110 nmol/L, molar ratio 1:81"}, "[27]": {"conditions": "Compound 1 41.2 nmol/L + Palbociclib 3330 nmol/L, molar ratio 1:81"}, "[28]": {"conditions": "Compound 1 123 nmol/L + Palbociclib 10000 nmol/L, molar ratio 1:81"}, "[29]": {"conditions": "Compound 1 1.52 nmol/L + Palbociclib 123 nmol/L, molar ratio 1:81"}}, "data": [{"smiles": "CCc1cc2c(cc1N1CCC(N3CCOCC3)CC1)C(C)(C)c1[nH]c3cc(C#N)ccc3c1C2=O", "note": "[Alectinib]", "values": [{"measurement": "CI", "setting": "[1]; [6]", "result": 0.905}, {"measurement": "Fa", "setting": "[1]; [6]", "result": 0.4310}, {"measurement": "CI", "setting": "[1]; [7]", "result": 0.542}, {"measurement": "Fa", "setting": "[1]; [7]", "result": 0.9801}, {"measurement": "Description (combinatory effect by CI)", "setting": "[1]; Compound 1:combination drug molar ratio 1:27", "result": "Synergy (0.3-0.7)"}, {"measurement": "CI", "setting": "[2]; [8]", "result": 0.829}, {"measurement": "Fa", "setting": "[2]; [8]", "result": 0.5762}, {"measurement": "CI", "setting": "[2]; [9]", "result": 0.484}, {"measurement": "Fa", "setting": "[2]; [9]", "result": 0.8852}, {"measurement": "CI", "setting": "[2]; [6]", "result": 0.609}, {"measurement": "Fa", "setting": "[2]; [6]", "result": 0.9534}, {"measurement": "CI", "setting": "[2]; [10]", "result": 0.187}, {"measurement": "Fa", "setting": "[2]; [10]", "result": 0.9967}, {"measurement": "CI", "setting": "[2]; [7]", "result": 0.631}, {"measurement": "Fa", "setting": "[2]; [7]", "result": 0.9962}]}, {"smiles": "C#Cc1cccc(Nc2ncnc3cc(OCCOC)c(OCCOC)cc23)c1", "note": "[Erlotinib]", "values": [{"measurement": "CI", "setting": "[3]; [11]", "result": 0.617}, {"measurement": "Fa", "setting": "[3]; [11]", "result": 0.1600}, {"measurement": "CI", "setting": "[3]; [12]", "result": 0.145}, {"measurement": "Fa", "setting": "[3]; [12]", "result": 0.3804}, {"measurement": "CI", "setting": "[3]; [13]", "result": 0.102}, {"measurement": "Fa", "setting": "[3]; [13]", "result": 0.5542}, {"measurement": "CI", "setting": "[3]; [14]", "result": 0.206}, {"measurement": "Fa", "setting": "[3]; [14]", "result": 0.6026}, {"measurement": "CI", "setting": "[3]; [15]", "result": 0.256}, {"measurement": "Fa", "setting": "[3]; [15]", "result": 0.7034}, {"measurement": "CI", "setting": "[3]; [16]", "result": 0.225}, {"measurement": "Fa", "setting": "[3]; [16]", "result": 0.8178}, {"measurement": "CI", "setting": "[2]; [17]", "result": 0.808}, {"measurement": "Fa", "setting": "[2]; [17]", "result": 0.0915}, {"measurement": "CI", "setting": "[2]; [18]", "result": 0.880}, {"measurement": "Fa", "setting": "[2]; [18]", "result": 0.2460}, {"measurement": "CI", "setting": "[2]; [19]", "result": 0.610}, {"measurement": "Fa", "setting": "[2]; [19]", "result": 0.6556}, {"measurement": "CI", "setting": "[2]; [20]", "result": 0.632}, {"measurement": "Fa", "setting": "[2]; [20]", "result": 0.8799}, {"measurement": "CI", "setting": "[2]; [21]", "result": 0.962}, {"measurement": "Fa", "setting": "[2]; [21]", "result": 0.9472}, {"measurement": "Description (combinatory effect by CI)", "setting": "[2]; [22]", "result": "Synergy (0.3-0.7)"}, {"measurement": "CI", "setting": "[4]; [18]", "result": 0.421}, {"measurement": "Fa", "setting": "[4]; [18]", "result": 0.2843}, {"measurement": "CI", "setting": "[4]; [19]", "result": 0.464}, {"measurement": "Fa", "setting": "[4]; [19]", "result": 0.4079}, {"measurement": "CI", "setting": "[4]; [20]", "result": 0.441}, {"measurement": "Fa", "setting": "[4]; [20]", "result": 0.5677}, {"measurement": "CI", "setting": "[4]; [21]", "result": 0.308}, {"measurement": "Fa", "setting": "[4]; [21]", "result": 0.7514}, {"measurement": "Description (combinatory effect by CI)", "setting": "[4]; [22]", "result": "Synergy (0.3-0.7)"}]}, {"smiles": "CC[C@H](Nc1ncnc2[nH]cnc12)c1nc2cccc(F)c2c(=O)n1-c1ccccc1", "note": "[Idelalisib]", "values": [{"measurement": "CI", "setting": "[5]; [17]", "result": 0.778}, {"measurement": "Fa", "setting": "[5]; [17]", "result": 0.0902}, {"measurement": "CI", "setting": "[5]; [19]", "result": 0.511}, {"measurement": "Fa", "setting": "[5]; [19]", "result": 0.2747}, {"measurement": "CI", "setting": "[5]; [20]", "result": 0.333}, {"measurement": "Fa", "setting": "[5]; [20]", "result": 0.5012}, {"measurement": "CI", "setting": "[5]; [21]", "result": 0.570}, {"measurement": "Fa", "setting": "[5]; [21]", "result": 0.6059}, {"measurement": "Description (combinatory effect by CI)", "setting": "[5]; [22]", "result": "Synergy (0.3-0.7)"}, {"measurement": "CI", "setting": "[2]; [17]", "result": 0.301}, {"measurement": "Fa", "setting": "[2]; [17]", "result": 0.2988}, {"measurement": "CI", "setting": "[2]; [18]", "result": 0.600}, {"measurement": "Fa", "setting": "[2]; [18]", "result": 0.3705}, {"measurement": "CI", "setting": "[2]; [19]", "result": 0.330}, {"measurement": "Fa", "setting": "[2]; [19]", "result": 0.7136}, {"measurement": "CI", "setting": "[2]; [20]", "result": 0.262}, {"measurement": "Fa", "setting": "[2]; [20]", "result": 0.8924}, {"measurement": "CI", "setting": "[2]; [21]", "result": 0.273}, {"measurement": "Fa", "setting": "[2]; [21]", "result": 0.9566}]}, {"smiles": "CC(=O)c1c(C)c2cnc(Nc3ccc(N4CCNCC4)cn3)nc2n(C2CCCC2)c1=O", "note": "[Palbociclib]", "values": [{"measurement": "CI", "setting": "[3]; [23]", "result": 0.774}, {"measurement": "Fa", "setting": "[3]; [23]", "result": 0.1141}, {"measurement": "CI", "setting": "[3]; [24]", "result": 0.695}, {"measurement": "Fa", "setting": "[3]; [24]", "result": 0.2564}, {"measurement": "CI", "setting": "[3]; [25]", "result": 0.833}, {"measurement": "Fa", "setting": "[3]; [25]", "result": 0.4277}, {"measurement": "CI", "setting": "[5]; [26]", "result": 0.411}, {"measurement": "Fa", "setting": "[5]; [26]", "result": 0.3192}, {"measurement": "CI", "setting": "[5]; [27]", "result": 0.271}, {"measurement": "Fa", "setting": "[5]; [27]", "result": 0.4189}, {"measurement": "CI", "setting": "[5]; [28]", "result": 0.225}, {"measurement": "Fa", "setting": "[5]; [28]", "result": 0.5120}, {"measurement": "CI", "setting": "[2]; [29]", "result": 0.827}, {"measurement": "Fa", "setting": "[2]; [29]", "result": 0.1698}, {"measurement": "CI", "setting": "[2]; [26]", "result": 0.520}, {"measurement": "Fa", "setting": "[2]; [26]", "result": 0.6523}, {"measurement": "CI", "setting": "[2]; [27]", "result": 0.699}, {"measurement": "Fa", "setting": "[2]; [27]", "result": 0.7944}, {"measurement": "CI", "setting": "[2]; [28]", "result": 0.565}, {"measurement": "Fa", "setting": "[2]; [28]", "result": 0.9297}, {"measurement": "Description", "setting": "[2]; combination effect, Compound 1 + Palbociclib, molar ratio 1:81", "result": "Synergy (0.3-0.7)"}]}]}
